Laboratory results reported in ChEMBL document CHEMBL5154688, “Design, Synthesis, and Characterization of I-BET567, a Pan-Bromodomain and Extra Terminal (BET) Bromodomain Oral Candidate” (J Med Chem, 2022).

Assays:
[1] = Intrinsic clearance in rat hepatocytes after 60 mins by LC-MS/MS analysis; type: ADME, cell-based, Hepatocyte; details: 1 h
[2] = Antineoplastic activity against human NMC 11060 cells xenografted in SCID mouse assessed as reduction in tumor volume at 10 mg/kg, po for 20 days measured at 3 days of post randomization relative to control; type: functional; details: NMC 11060 cell, 480 h, time 20 day
[3] = Cmax in KLH-TNP-induced T-cell dependent immunization CD-1 mouse model at 30 mg/kg, po administered every other day for 14 days; type: ADME, organism-based; set-up: dose 30 mg/kg, time 14 day, route po; details: in vivo
[4] = target: C-C motif chemokine 2 (Homo sapiens, UniProt P13500); test: Inhibition of MCP-1 in LPS-stimulated human whole blood incubate for 24 hrs by immuno assay; type: tissue-based
[5] = AUC(0 to 72 hrs) in KLH-TNP-induced T-cell dependent immunization CD-1 mouse model at 30 mg/kg, po administered daily for 14 days; type: ADME, organism-based; set-up: dose 30 mg/kg, time 14 day, route po; details: in vivo
[6] = Antineoplastic activity against human NMC 11060 cells xenografted in SCID mouse assessed as reduction in tumor volume at 30 mg/kg, po for 20 days measured at 17 days of post randomization relative to control; type: functional; details: NMC 11060 cell, 480 h, time 20 day
[7] = Antineoplastic activity against human NMC 11060 cells xenografted in SCID mouse assessed as reduction in tumor volume at 30 mg/kg, po for 20 days measured at 10 days of post randomization relative to control; type: functional; details: NMC 11060 cell, 480 h, time 20 day
[8] = Antineoplastic activity against human NMC 11060 cells xenografted in SCID mouse assessed as reduction in tumor volume at 10 mg/kg, po for 20 days measured at 10 days of post randomization relative to control; type: functional; details: NMC 11060 cell, 480 h, time 20 day
[9] = Toxicity in KLH-TNP-induced T-cell dependent immunization CD-1 mouse model assessed as effect on body weight at 30 mg/kg, po administered daily for 14 days; type: organism-based; details: in vivo, 336 h, time 14 day
[10] = Volume of distribution at steady state in Wistar Han rat blood at 3 mg/kg, po or 1.3 mg/kg, iv measured upto 24 hrs by LC-MS/MS analysis; type: ADME, organism-based; details: in vivo
[11] = target: Bromodomain-containing protein 2 (Homo sapiens, UniProt P25440); test: Binding affinity to BRD2 BD2 (unknown origin) assessed as dissociation constant
[12] = Toxicity in KLH-TNP-induced T-cell dependent immunization CD-1 mouse model assessed as tolerability at 30 mg/kg, po administered daily for 14 days; type: organism-based; details: in vivo, 336 h, time 14 day
[13] = Renal clearance in Wistar Han rat assessed as ratio/proportion of renal elimination to total clearance at 3 mg/kg, po or 1.3 mg/kg, iv measured upto 24 hrs by LC-MS/MS analysis; type: ADME, organism-based; details: in vivo
[14] = Unbound volume of distribution at steady state in Beagle dog blood at 3 mg/kg, po or 1.0 mg/kg, iv by LC-MS/MS analysis; type: ADME, organism-based, Canis lupus familiaris; details: in vivo
[15] = Antineoplastic activity against human NMC 11060 cells xenografted in SCID mouse assessed as reduction in tumor volume at 30 mg/kg, po for 20 days measured at 15 days of post randomization relative to control; type: functional; details: NMC 11060 cell, 480 h, time 20 day
[16] = Cmax in KLH-TNP-induced T-cell dependent immunization CD-1 mouse model at 30 mg/kg, po administered daily for 14 days; type: ADME, organism-based; set-up: time 14 day, dose 30 mg/kg, route po; details: in vivo
[17] = Oral bioavailability in Wistar Han rat blood at 3 mg/kg measured upto 24 hrs by LC-MS/MS analysis; type: ADME, organism-based
[18] = Toxicity in SCID mouse xenografted with human NMC 11060 cells assessed as loss of body weight at 30 mg/kg, po for 20 days; type: organism-based; details: in vivo, 480 h, time 20 day
[19] = target: T1, Bromodomain-containing protein 4 (Homo sapiens, UniProt O60885); test: Binding affinity to BRD4 BD1 (unknown origin) assessed as dissociation constant
[20] = Antineoplastic activity against human NMC 11060 cells xenografted in SCID mouse assessed as reduction in tumor volume at 30 mg/kg, po for 20 days measured at 20 days of post randomization relative to control; type: functional; details: NMC 11060 cell, 480 h, time 20 day
[21] = Antineoplastic activity against human NMC 11060 cells xenografted in SCID mouse assessed as reduction in tumor volume at 30 mg/kg, po for 20 days measured at 13 days of post randomization relative to control; type: functional; details: NMC 11060 cell, 480 h, time 20 day
[22] = target: Bromodomain-containing protein 3 (Homo sapiens, UniProt Q15059); test: Binding affinity to BRD3 BD1 (unknown origin) assessed as dissociation constant
[23] = target: T1, Bromodomain-containing protein 4; test: Inhibition of BRD4 BD1 (unknown origin) incubated for 30 mins in presence of fluorescent ligand by TR-FRET method
[24] = Antineoplastic activity against human NMC 11060 cells xenografted in SCID mouse assessed as reduction in tumor volume at 10 mg/kg, po for 20 days measured at 17 days of post randomization relative to control; type: functional; details: NMC 11060 cell, 480 h, time 20 day
[25] = Artificial membrane permeability of the compound; type: ADME; details: PAMPA; read-out: permeability
[26] = Antineoplastic activity against human NMC 11060 cells xenografted in SCID mouse assessed as reduction in tumor volume at 3 to 30 mg/kg, po for 20 days; type: functional, NUT midline carcinoma; set-up: scale not given: the % may be the effect or the level left; details: dose 3-30 mg/kg, time 20 day
[27] = Antineoplastic activity against human NMC 11060 cells xenografted in SCID mouse assessed as reduction in tumor volume at 10 mg/kg, po for 20 days measured at 6 days of post randomization relative to control; type: functional; details: NMC 11060 cell, 480 h, time 20 day
[28] = Renal clearance in Beagle dog assessed as ratio/proportion of renal elimination to total clearance at 3 mg/kg, po or 1 mg/kg, iv by LC-MS/MS analysis; type: ADME, organism-based, Canis lupus familiaris; details: in vivo
[29] = system: Mus musculus; test: Antiinflammatory activity in KLH-TNP-induced T-cell dependent immunization CD-1 mouse model assessed as reduction in circulating IgG1 at 30 mg/kg, po administered daily for 14 days followed by administration of KLH-TNP after 1 hr; type: functional; details: CD-1, T-cell, 336 h, time 14 day
[30] = Antiproliferative activity against human NMC 11060 cells assessed as inhibition of proliferation; type: functional, cell-based; details: NUT midline carcinoma

Chain of Bromodomain-containing protein 2 (P25440 whole entry): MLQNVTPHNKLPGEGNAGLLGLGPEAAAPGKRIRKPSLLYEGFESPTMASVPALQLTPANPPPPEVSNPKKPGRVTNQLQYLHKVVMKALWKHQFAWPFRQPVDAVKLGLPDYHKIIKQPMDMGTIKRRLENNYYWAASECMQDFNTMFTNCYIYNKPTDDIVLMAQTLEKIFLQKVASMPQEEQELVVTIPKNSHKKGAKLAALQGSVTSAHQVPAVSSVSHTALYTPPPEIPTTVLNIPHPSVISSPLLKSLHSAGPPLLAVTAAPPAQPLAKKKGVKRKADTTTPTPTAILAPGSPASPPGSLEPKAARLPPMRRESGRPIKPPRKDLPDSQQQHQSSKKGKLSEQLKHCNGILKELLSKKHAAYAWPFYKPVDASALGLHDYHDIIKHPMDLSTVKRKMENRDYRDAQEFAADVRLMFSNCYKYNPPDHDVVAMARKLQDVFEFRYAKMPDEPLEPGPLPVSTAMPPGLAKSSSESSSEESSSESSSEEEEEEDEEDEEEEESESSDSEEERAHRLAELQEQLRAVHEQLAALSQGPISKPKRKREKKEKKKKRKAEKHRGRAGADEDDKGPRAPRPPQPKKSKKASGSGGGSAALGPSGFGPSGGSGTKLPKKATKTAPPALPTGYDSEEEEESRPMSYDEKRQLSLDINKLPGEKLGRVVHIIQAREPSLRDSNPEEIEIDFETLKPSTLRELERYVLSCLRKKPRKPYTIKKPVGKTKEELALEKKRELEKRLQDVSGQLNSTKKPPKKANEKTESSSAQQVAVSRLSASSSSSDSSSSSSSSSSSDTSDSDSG
Chain of C-C motif chemokine 2 (P13500 whole entry): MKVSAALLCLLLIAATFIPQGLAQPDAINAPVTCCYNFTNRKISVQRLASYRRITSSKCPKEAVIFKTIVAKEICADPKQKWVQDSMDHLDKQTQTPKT
Chain of Bromodomain-containing protein 3 (Q15059 whole entry): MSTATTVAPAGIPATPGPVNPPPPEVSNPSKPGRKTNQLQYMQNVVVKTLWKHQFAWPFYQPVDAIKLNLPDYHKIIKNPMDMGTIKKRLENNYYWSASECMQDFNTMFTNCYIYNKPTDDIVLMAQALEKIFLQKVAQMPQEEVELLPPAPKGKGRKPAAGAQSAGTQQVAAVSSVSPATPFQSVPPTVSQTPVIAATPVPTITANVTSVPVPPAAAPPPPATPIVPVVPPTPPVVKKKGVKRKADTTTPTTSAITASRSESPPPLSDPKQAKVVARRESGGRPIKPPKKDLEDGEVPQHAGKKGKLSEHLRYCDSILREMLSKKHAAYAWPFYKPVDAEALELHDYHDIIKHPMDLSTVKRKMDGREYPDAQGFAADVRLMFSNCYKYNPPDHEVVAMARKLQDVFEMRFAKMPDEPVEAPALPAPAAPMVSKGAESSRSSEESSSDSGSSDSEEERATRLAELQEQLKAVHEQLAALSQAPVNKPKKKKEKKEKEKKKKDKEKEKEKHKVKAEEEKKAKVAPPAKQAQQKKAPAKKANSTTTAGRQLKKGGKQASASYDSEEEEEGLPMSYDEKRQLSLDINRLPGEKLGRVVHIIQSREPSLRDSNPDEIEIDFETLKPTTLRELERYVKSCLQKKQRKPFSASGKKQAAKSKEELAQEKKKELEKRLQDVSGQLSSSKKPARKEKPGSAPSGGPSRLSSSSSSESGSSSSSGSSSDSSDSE

Which results are given for CC(=O)N1c2ccc(C(N)=O)cc2[C@H](Nc2ncc(Cl)cn2)C[C@@H]1C?
CLH [1]: < 0.8 mL/min/g; inhibition in vivo at 10 mg/kg [2]: 45%; Cmax [3]: 8.5 µM; IC50 [4]: 200 nM; AUC at 336 h [5]: 103 µM·h; inhibition in vivo at 30 mg/kg [6]: 93%; inhibition in vivo at 30 mg/kg [7]: 83%; inhibition in vivo at 10 mg/kg [8]: 69%; Activity [9]: Non-Toxic; Vdss [10]: 2.4 L/kg; Kd [11]: 7.94 nM; Activity [12]: Non-Toxic; Ratio [13]: 28%; Vduss [14]: 2.9 L/kg; inhibition in vivo at 30 mg/kg [15]: 92%; Cmax [16]: 8.5 µM; bioavailability [17]: 99%; Activity [18]: 19.6%; Kd [19]: 25.1 nM; inhibition in vivo at 30 mg/kg [20]: 93%; inhibition in vivo at 30 mg/kg [21]: 88%; Kd [22]: 25.1 nM; IC50 [23]: 126 nM; inhibition in vivo at 10 mg/kg [24]: 59%; Papp [25]: 6.8 ×10⁻⁶ cm/s; Activity [26]: >50%; inhibition in vivo at 10 mg/kg [27]: 54%; Ratio [28]: 85%; inhibition in vivo at 30 mg/kg [29]: 98%; IC50 [30]: 630 nM
